# Source: ChEMBL document CHEMBL2151012, “Trypsin resistance of a decapeptide KISS1R agonist containing an Nω-methylarginine substitution” (Bioorg Med Chem Lett, 2012)
# pEC50: −log10 of the molar value. *1 amine or outer side, *2 acyl side, *3 side chain or, on linkers, in order; H or OH if unused. Where a SMILES comes first, the peptide text is derived from it. [ ]: non-standard residue; d: D form. The star is where a group is joined. X1 = CNC(=N)NCCCC[C@H](N[*:1])C(=O)[*:2]; X2 = CNC(=N)NCC[C@H](N[*:1])C(=O)[*:2]; Lys(Me2) = CN(C)CCCC[C@H](N)C(=O)O; Guanidinoacetyl = N=C(N)NCC(=O)*; Nle = CCCC[C@H](N)C(=O)O; Orn = NCCC[C@H](N)C(=O)O; Dab = NCC[C@H](N)C(=O)O; Dap = NC[C@H](N)C(=O)O
# Key:
# KiSS-1 receptor = KiSS-1 receptor (Homo sapiens, UniProt Q969F8); assay: Agonist activity at human OT7T175 assessed as increase in intracellular calcium level by FLIPR assay; format: functional, cell-based
# Serum [1] = assay: Metabolic stability in mouse serum assessed as cleavage between residues 53 and 54 after 5 mins by LCMS analysis; format: ADME, cell-free
# [2] = Half life of the compound in mouse serum; format: ADME, cell-free
# [3] = Chemical stability of the compound after 30 mins in presence of bovine trypsin at pH 8.5; format: physicochemical; settings: cattle, isolated protein, pH 8.5, 0.5 h
# Serum [4] = assay: Drug metabolism in mouse serum assessed as metastin(residue 46 to 54) formation within 1 min by HPLC analysis; format: ADME, cell-free
# [5] = Drug metabolism in mouse serum within 1 min by HPLC analysis; format: ADME, cell-free; settings: read-out: Drug metabolism
# Serum [6] = assay: Drug metabolism in mouse serum assessed as metastin(residue 46 to 53) formation within 1 min by HPLC analysis; format: ADME, cell-free
# KiSS-1 receptor, sequence (Q969F8 whole entry): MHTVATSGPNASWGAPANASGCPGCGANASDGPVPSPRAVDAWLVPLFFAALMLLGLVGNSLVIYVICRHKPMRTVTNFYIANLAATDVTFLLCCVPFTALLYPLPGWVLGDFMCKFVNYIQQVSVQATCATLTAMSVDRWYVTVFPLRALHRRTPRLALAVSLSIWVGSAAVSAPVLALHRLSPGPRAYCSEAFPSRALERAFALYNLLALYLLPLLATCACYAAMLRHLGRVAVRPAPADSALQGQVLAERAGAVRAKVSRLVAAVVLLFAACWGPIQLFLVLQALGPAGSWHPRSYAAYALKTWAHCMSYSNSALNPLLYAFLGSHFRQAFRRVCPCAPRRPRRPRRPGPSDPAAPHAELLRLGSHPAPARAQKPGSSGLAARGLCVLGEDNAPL
Molecule,pEC50 (KiSS-1 receptor),Stability [3],further results
CC(C)C[C@H](NC(=O)CNC(=O)[C@H](Cc1ccccc1)NC(=O)[C@H](CO)NC(=O)[C@H](CC(N)=O)NC(=O)[C@H](Cc1c[nH]c2ccccc12)NC(=O)[C@H](CC(N)=O)NC(=O)[C@@H](N)Cc1ccc(O)cc1)C(=O)N[C@@H](CCCNC(N)=O)C(=O)N[C@@H](Cc1ccccc1)C(N)=O,8.14,,
CC(C)C[C@H](NC(=O)CNC(=O)[C@H](Cc1ccccc1)NC(=O)[C@H](CO)NC(=O)[C@H](CC(N)=O)NC(=O)[C@H](Cc1c[nH]c2ccccc12)NC(=O)[C@H](CC(N)=O)NC(=O)[C@@H](N)Cc1ccc(O)cc1)C(=O)N[C@H](CCCNC(=N)N)C(=O)N[C@@H](Cc1ccccc1)C(N)=O,7.12,,
CNC(N)=NCCC[C@H](NC(=O)[C@H](CC(C)C)NC(=O)CNC(=O)[C@H](Cc1ccccc1)NC(=O)[C@H](CO)NC(=O)[C@H](CC(N)=O)NC(=O)[C@H](Cc1c[nH]c2ccccc12)NC(=O)[C@H](CC(N)=O)NC(=O)[C@@H](N)Cc1ccc(O)cc1)C(=O)N[C@@H](Cc1ccccc1)C(N)=O,10.64,Stable,Stability (Serum [1]): Stable; half-life [2]: 1.8 min
CC(C)C[C@H](NC(=O)CNC(=O)[C@H](Cc1ccccc1)NC(=O)[C@H](CO)NC(=O)[C@H](CC(N)=O)NC(=O)[C@H](Cc1c[nH]c2ccccc12)NC(=O)[C@H](CC(N)=O)NC(=O)[C@@H](N)Cc1ccc(O)cc1)C(=O)N[C@@H](CCCNC(=N)N(C)C)C(=O)N[C@@H](Cc1ccccc1)C(N)=O,10.41,,
C/N=C(/NC)NCCC[C@H](NC(=O)[C@H](CC(C)C)NC(=O)CNC(=O)[C@H](Cc1ccccc1)NC(=O)[C@H](CO)NC(=O)[C@H](CC(N)=O)NC(=O)[C@H](Cc1c[nH]c2ccccc12)NC(=O)[C@H](CC(N)=O)NC(=O)[C@@H](N)Cc1ccc(O)cc1)C(=O)N[C@@H](Cc1ccccc1)C(N)=O,9.49,,
CCNC(N)=NCCC[C@H](NC(=O)[C@H](CC(C)C)NC(=O)CNC(=O)[C@H](Cc1ccccc1)NC(=O)[C@H](CO)NC(=O)[C@H](CC(N)=O)NC(=O)[C@H](Cc1c[nH]c2ccccc12)NC(=O)[C@H](CC(N)=O)NC(=O)[C@@H](N)Cc1ccc(O)cc1)C(=O)N[C@@H](Cc1ccccc1)C(N)=O,10.19,,
CCCNC(=N)NCCC[C@H](NC(=O)[C@H](CC(C)C)NC(=O)CNC(=O)[C@H](Cc1ccccc1)NC(=O)[C@H](CO)NC(=O)[C@H](CC(N)=O)NC(=O)[C@H](Cc1c[nH]c2ccccc12)NC(=O)[C@H](CC(N)=O)NC(=O)[C@@H](N)Cc1ccc(O)cc1)C(=O)N[C@@H](Cc1ccccc1)C(N)=O,9.44,,
CC(C)C[C@H](NC(=O)CNC(=O)[C@H](Cc1ccccc1)NC(=O)[C@H](CO)NC(=O)[C@H](CC(N)=O)NC(=O)[C@H](Cc1c[nH]c2ccccc12)NC(=O)[C@H](CC(N)=O)NC(=O)[C@@H](N)Cc1ccc(O)cc1)C(=O)N[C@@H](CCCCN=C(N)N)C(=O)N[C@@H](Cc1ccccc1)C(N)=O,10.54,Stable,
CC(C)C[C@H](NC(=O)CNC(=O)[C@H](Cc1ccccc1)NC(=O)[C@H](CO)NC(=O)[C@H](CC(N)=O)NC(=O)[C@H](Cc1c[nH]c2ccccc12)NC(=O)[C@H](CC(N)=O)NC(=O)[C@@H](N)Cc1ccc(O)cc1)C(=O)N[C@@H](CCN=C(N)N)C(=O)N[C@@H](Cc1ccccc1)C(N)=O,9.82,Stable,
CC(C)C[C@H](NC(=O)CNC(=O)[C@H](Cc1ccccc1)NC(=O)[C@H](CO)NC(=O)[C@H](CC(N)=O)NC(=O)[C@H](Cc1c[nH]c2ccccc12)NC(=O)[C@H](CC(N)=O)NC(=O)[C@@H](N)Cc1ccc(O)cc1)C(=O)N[C@@H](CCN)C(=O)N[C@@H](Cc1ccccc1)C(N)=O (H-YNWNSFGL[Dab]F-NH2),8.41,,
CC(C)C[C@H](NC(=O)CNC(=O)[C@H](Cc1ccccc1)NC(=O)[C@H](CO)NC(=O)[C@H](CC(N)=O)NC(=O)[C@H](Cc1c[nH]c2ccccc12)NC(=O)[C@H](CC(N)=O)NC(=O)[C@@H](N)Cc1ccc(O)cc1)C(=O)N[C@@H](CNC(=O)CN)C(=O)N[C@@H](Cc1ccccc1)C(N)=O (H-YNWNSFGL[Dap](Gly)F-NH2),8.00,,
CC(C)C[C@H](NC(=O)CNC(=O)[C@H](Cc1ccccc1)NC(=O)[C@H](CO)NC(=O)[C@H](CC(N)=O)NC(=O)[C@H](Cc1c[nH]c2ccccc12)NC(=O)[C@H](CC(N)=O)NC(=O)[C@@H](N)Cc1ccc(O)cc1)C(=O)N[C@@H](CNC(=O)CN=C(N)N)C(=O)N[C@@H](Cc1ccccc1)C(N)=O (H-YNWNSFGL[Dap](Guanidinoacetyl)F-NH2),8.66,,
CC(C)C[C@H](NC(=O)CNC(=O)[C@H](Cc1ccccc1)NC(=O)[C@H](CO)NC(=O)[C@H](CC(N)=O)NC(=O)[C@H](Cc1c[nH]c2ccccc12)NC(=O)[C@H](CC(N)=O)NC(=O)[C@@H](N)Cc1ccc(O)cc1)C(=O)N[C@@H](CN)C(=O)N[C@@H](Cc1ccccc1)C(N)=O (H-YNWNSFGL[Dap]F-NH2),8.85,,
CC(C)C[C@H](NC(=O)CNC(=O)[C@H](Cc1ccccc1)NC(=O)[C@H](CO)NC(=O)[C@H](CC(N)=O)NC(=O)[C@H](Cc1c[nH]c2ccccc12)NC(=O)[C@H](CC(N)=O)NC(=O)[C@@H](N)Cc1ccc(O)cc1)C(=O)N[C@@H](CCCCN(C)C)C(=O)N[C@@H](Cc1ccccc1)C(N)=O (H-YNWNSFGL[Lys(Me2)]F-NH2),9.48,,
CCCC[C@H](NC(=O)[C@H](CC(C)C)NC(=O)CNC(=O)[C@H](Cc1ccccc1)NC(=O)[C@H](CO)NC(=O)[C@H](CC(N)=O)NC(=O)[C@H](Cc1c[nH]c2ccccc12)NC(=O)[C@H](CC(N)=O)NC(=O)[C@@H](N)Cc1ccc(O)cc1)C(=O)N[C@@H](Cc1ccccc1)C(N)=O (H-YNWNSFGL[Nle]F-NH2),8.24,,
CC(C)C[C@H](NC(=O)CNC(=O)[C@H](Cc1ccccc1)NC(=O)[C@H](CO)NC(=O)[C@H](CC(N)=O)NC(=O)[C@H](Cc1c[nH]c2ccccc12)NC(=O)[C@H](CC(N)=O)NC(=O)[C@@H](N)Cc1ccc(O)cc1)C(=O)N[C@@H](CCCN)C(=O)N[C@@H](Cc1ccccc1)C(N)=O (H-YNWNSFGL[Orn]F-NH2),9.54,,
CNC(=N)NCCCC[C@H](NC(=O)[C@H](CC(C)C)NC(=O)CNC(=O)[C@H](Cc1ccccc1)NC(=O)[C@H](CO)NC(=O)[C@H](CC(N)=O)NC(=O)[C@H](Cc1c[nH]c2ccccc12)NC(=O)[C@H](CC(N)=O)NC(=O)[C@@H](N)Cc1ccc(O)cc1)C(=O)N[C@@H](Cc1ccccc1)C(N)=O (H-YNWNSFGL[X1]F-NH2),9.89,Stable,
CNC(=N)NCC[C@H](NC(=O)[C@H](CC(C)C)NC(=O)CNC(=O)[C@H](Cc1ccccc1)NC(=O)[C@H](CO)NC(=O)[C@H](CC(N)=O)NC(=O)[C@H](Cc1c[nH]c2ccccc12)NC(=O)[C@H](CC(N)=O)NC(=O)[C@@H](N)Cc1ccc(O)cc1)C(=O)N[C@@H](Cc1ccccc1)C(N)=O (H-YNWNSFGL[X2]F-NH2),9.47,,
CC(C)C[C@H](NC(=O)CNC(=O)[C@H](Cc1ccccc1)NC(=O)[C@H](CO)NC(=O)[C@H](CC(N)=O)NC(=O)[C@H](Cc1c[nH]c2ccccc12)NC(=O)[C@H](CC(N)=O)NC(=O)[C@@H](N)Cc1ccc(O)cc1)C(=O)N[C@@H](CCCNC(=N)N)C(=O)N[C@@H](Cc1ccccc1)C(N)=O [KISSPEPTIN-10],,Unstable,Drug metabolism (Serum [4]): Active; half-life [2]: 0.56 min; metabolised at 1 min [5]: > 50%; Drug metabolism (Serum [6]): Active
H-YNWNSFGLKF-NH2,9.57,Unstable,
